These results are taken from patent US20240218019A1, “METHODS AND COMPOSITIONS COMPRISING MHC CLASS I PEPTIDES” (BOARD OF REGENTS, THE UNIVERSITY OF TEXAS SYSTEM, priority 2021, published 2024).

The test system of this experiment is healthy donor PBMCs. Description: IFNγ ELISpot assay with peptide-stimulated healthy donor PBMCs. The class given is cell-based, human. Here is the method:
FIG. 10A-D. In vitro validation of predicted neoAgs immunogenicity using ELISpot IFNy assay. A) Schematic of peptide pool, stimulation, and cell culture workflow for ELISpot assays. PBMCs were exposed with the individual peptides from the immunogenic pools in the presence of IL-7 for 3 d, followed by expansion of neoAg-specific T cells in the presence of IL-2. On day 13, expanded cells (10^5 cells per well) were plated onto 96-well ELISpot plate coated with an IFNγ antibody and re-stimulated with the respective peptide for 24 h. IFNy secreting cells were analyzed as spot-forming units (SFUs), and the inventors chose ≥15 SFU produced by peptide stimulated cells over DMSO control cells as an indicator of the peptide immunogenicity. B) Quantification of IFNγ-secreting cells (SFU) obtained from ELISpot assay of 12 neoAg-stimulated PBMCs. ConcA and DMSO served as positive and negative controls. […] C) Selection of 110 predicted MHC-I neoAgs from 3 different categories and percentage of immunogenicity in vitro validation. […] “Most Immunogenic” refers to neoAgs selected from the top 100 prediction list of Most Immunogenic MHC-I neoAgs. “Most recurrent” refers to neoAgs selected from the top 100 prediction list of Most Recurrent MHC-I neoAgs. “Others” refers neoAgs that were predicted to have low immunogenicity and no recurrency. A total of 44 MHC-II neoAgs from 2 different categories were tested. […] “Most Immunogenic” refers to neoAgs selected from the top 100 prediction list of Most Immunogenic MHC-II neoAgs. “Most recurrent” refers to neoAgs selected from the top 100 prediction list of Most Recurrent MHC-II neoAgs. D) pMHC-pentamer staining. Expanded Pan-T cells from the healthy human donor were isolated and stained with WDTC1 neoAg peptide/A*02:01 Pentameric complexes and PerCP-conjugated CD8 antibody followed by flow cytometry analysis. Pan T-cells from healthy human donor PBMC (HLA-A*02:01) were isolated using negative magnetic selection. Isolated Pan T cells were stimulated and expanded with Opto-antigen presenting beads conjugated with WDTC1 neoAg-peptide. Viable Pan-T cells were gated based on FSC and SSC scatter and SYTOX Blue dead cells staining after doublet-exclusion. Flow cytometric plots representing CD8 positive (x-axis) and PE-biotin-pMHC-pentamer positive (y-axis) cells; unstained, unstimulated, and WDTC1 Opto-antigen presenting beads stimulated cells (left to right). The percentage of live CD8+ cells and CD8/WDTC1 neoAg-loaded MHC pentamer positive cells are shown.
FIG. 19A-B. In vitro validation of the pooled predicted neoAgs immunogenicity using ELISpot IFNγ assay. A) Schematic of peptide pool, stimulation, and cell culture workflow for ELISpot assays. All 154 peptides were grouped into 15 peptide pools to stimulate PBMCs from 3 healthy human donors as shown in the illustrations. IFNy secreting cells were analyzed as spot-forming units (SFUs), indicative of immunogenicity. B) Quantification of IFNγ-secreting cells (SFU) obtained from ELISpot assay. Pools 2, 3, 5, 6, 9, and 12 produced at least 15 or higher SFU/10^5 cells from two different PBMCs. […] ConcA and DMSO served as positive and negative controls.
Healthy donor PBMCs were stimulated with 15 peptide pools (Supplementary Table 13) to expand the neoAg-specific CD8^+ T-cells followed by quantitative ELISpot assays (FIG. 19A) to measure immunogenicity. […] To ascertain the immunogenicity of individual peptides within each immunogenic pool. a deconvolution protocol (see Methods) was implemented (FIG. 10A). […] Three percent of MHC-I neoAgs not predicted to be highly immunogenic or recurrent (Others). 5% of the top 100 most immunogenic MHC-II predicted neoags, and 6% of the top 100 most recurrent MHC-II predicted neoags elicited an immunogenic response as assessed by ELISpot assays. Additionally. 18% of all of these elispot-reactive neoags were also predicted from the validation set (FIG. 9C). […]

[1] abbreviates: IFNγ ELISpot, peptide-stimulated healthy donor PBMCs.
[2] abbreviates: IFNγ secretion in healthy donor PBMCs vs unexposed control cells.
The mark [3] stands for this setting: IFNγ ELISpot, only peptides marked Tested.
Setting [4] is: IFNγ ELISpot, peptide-stimulated healthy donor PBMCs, peptides grouped in 15 pools.
Setting [5] is: IFNγ ELISpot, healthy donor PBMCs stimulated with peptide pools.
Setting [6] is: IFNγ ELISpot, peptides marked Tested.

With KANRYFSPNF [compound 62], under setting [1], the “ELISPOT result (positive Yes/No) for peptides marked Tested” value (from here on “ELISPOT result (positive Yes/No)”) is reported as “Yes” and the “ELISPOT result for peptides marked Tested with ELISPOT (Yes/No)” value (shortened to “ELISPOT result … (Yes/No)”) is on record as “No”. Also, the Elispot reactive entry under setting [2] is on record as “Yes”. KLFEKKYSV [compound 6]: the Elispot reactive entry (IFNγ ELISpot, peptide tested) is reported as “No”.

With KLSSVVPSV [compound 22], the Elispot reactive result under setting [3] was “No”. On to KLYEAVPQL [compound 159], for which the “ELISPOT result (positive Yes/No)” value under setting [1] is reported as “No”. As for KMMKILMIK [compound 19], the Elispot reactive entry under setting [3] was “No”. Take KPIAGRHTL [compound 8]: for the setting “IFNγ ELISpot, peptide tested”, the Elispot reactive entry is listed as “No”. Consider KPLWRKSPL [compound 137], for which the “ELISPOT result (positive Yes/No)” value under setting [1] is listed as “No”. Take KRAFIHTPR [compound 131]: the “ELISPOT result (positive Yes/No)” value under setting [1] is listed as “No”. For KTYMEMHY, the Elispot reactive entry under setting [4] was “yes”.

In the case of KTYMEMHY [compound 57], under setting [1], the “ELISPOT result (positive Yes/No)” value was “No” and the “ELISPOT result … (Yes/No)” value is given as “Yes”. The Elispot reactive result under setting [2] is “Yes”. KVDTHHLQV [compound 133]: the “ELISPOT result (positive Yes/No)” value under setting [1] was “No”. For the sequence KVPFFSALK [compound 169], the “ELISPOT result (positive Yes/No)” value under setting [1] is given as “No”. Same read-out and setting: for LAYWEKREAW [compound 177] the value was “No”. For LEVMLLNMGYRITGL, the Elispot reactive entry under setting [5] is listed as “yes”. Regarding LKLCSKVSF [compound 132], under setting [1], the “ELISPOT result (positive Yes/No)” value is on record as “No”. LLNPVTMNK [compound 204]: the Elispot reactive result (IFNγ ELISpot, peptide tested) is listed as “No”. LLNPVTMNKA: the Elispot reactive result under setting [4] is reported as “yes”. Regarding LLNPVTMNKA [compound 206], the Elispot reactive result (IFNγ ELISpot, peptide tested) is “No”.

With LSAPEKITLF [compound 20], the Elispot reactive entry by setting is: under setting [3], “Yes”; under setting [2], “Yes”. For the same sequence, the “ELISPOT result (positive Yes/No)” value under setting [1] is recorded as “Yes”. As to LSNVAPPAF, the Elispot reactive result under setting [4] was “yes”. As to LSNVAPPAF [compound 168], under setting [1], the “ELISPOT result (positive Yes/No)” value was “Yes”. Also, the Elispot reactive result under setting [2] was “Yes”. As for LSSPFREQM [compound 38], the Elispot reactive result under setting [3] is on record as “No”. Moreover, the “ELISPOT result (positive Yes/No)” value under setting [1] is “No”.

Take LSSWFSPTV [compound 139]: the “ELISPOT result (positive Yes/No)” value under setting [1] is “No”. With LTFCTNATI [compound 200], the Elispot reactive result (IFNγ ELISpot, peptide tested) is “No”.

LTHPAHQPL [compound 124]: under setting [6], the Elispot reactive result is “No”. Regarding MLLELSPAQL [compound 216], the Elispot reactive entry (IFNγ ELISpot, peptide tested) is listed as “No”.

As for MLLRLNLRK [compound 29], the Elispot reactive entry under setting [3] was “Yes” and the Elispot reactive entry under setting [2] is recorded as “Yes”. Besides, under setting [1], the “ELISPOT result (positive Yes/No)” value is on record as “Yes”. As for MPCFTTALLL [compound 155], under setting [1], the “ELISPOT result (positive Yes/No)” value is given as “No”. On the same count and under the same terms, the same measure for MSSIWGTMF [compound 140]: “No”; for MYFFWPCSL [compound 174]: “No”.

NMIQVLMSV [compound 49]: the “ELISPOT result … (Yes/No)” value under setting [1] is recorded as “No”.

QKKLMLLRLNLRKMC: under setting [4], the Elispot reactive result is “yes”. On the same count and under the same terms, the same measure for QTIEERLTW: “yes”. On to QTIEERLTW [compound 156], for which the “ELISPOT result (positive Yes/No)” value under setting [1] is “Yes”. In addition, the Elispot reactive entry under setting [2] is “Yes”.

RAWRAGMPL [compound 153]: the “ELISPOT result (positive Yes/No)” value under setting [1] is given as “No”.

Consider RAWRRFPLL [compound 118], for which the Elispot reactive entry under setting [6] is on record as “No”. As to RFCPASCSGCY, the Elispot reactive result under setting [4] is “yes”. RFCPASCSGCY [compound 170]: the “ELISPOT result (positive Yes/No)” value under setting [1] was “No”. As for RIPAVLRTEGEPLHT, under setting [4], the Elispot reactive result is recorded as “yes”.

Consider RIPAVLRTEGEPLHT [compound 323], for which the Elispot reactive result is reported as “Yes” under setting [6] and “Yes” under setting [2]. Take RLDKGNFAGA: under setting [4], the Elispot reactive entry was “yes”. For RLDKGNFAGA [compound 215], the Elispot reactive entry (IFNγ ELISpot, peptide tested) is “No”. For RLSCAPPPI, the Elispot reactive result under setting [4] was “yes”. As to RLSCAPPPI [compound 138], the “ELISPOT result (positive Yes/No)” value under setting [1] was “Yes”. In addition, the Elispot reactive entry under setting [2] was “Yes”. For the sequence RLYKYDHNFV [compound 213], the Elispot reactive entry (IFNγ ELISpot, peptide tested) is on record as “No”. As for RLYVPLYSSK, the Elispot reactive entry under setting [4] is reported as “yes”. On to RLYVPLYSSK [compound 37], for which the Elispot reactive result under setting [3] is reported as “Yes” and the Elispot reactive result under setting [2] was “Yes”. Moreover, the “ELISPOT result (positive Yes/No)” value under setting [1] is reported as “Yes”.

Take RMASTSCAA [compound 161]: the “ELISPOT result (positive Yes/No)” value under setting [1] was “No”.

For RPACTCISM [compound 97], under setting [1], the “ELISPOT result (positive Yes/No)” value is listed as “No”. Further, the “ELISPOT positive” value (only neoAgs marked Tested with ELISPOT) is “No”. RPLCSSLGPL [compound 15]: the Elispot reactive entry (IFNγ ELISpot, peptide tested) is listed as “No”. Same read-out and setting: for RPRMRAASPL [compound 13] the value was “No”; for RPVRGRGSL [compound 14], “No”; for RQMLPTLSTL [compound 214], “No”. For RRPLRSWTPR [compound 152], under setting [1], the “ELISPOT result (positive Yes/No)” value is listed as “No”.

In the case of RSAFPSRSL [compound 126], the Elispot reactive entry is “No” under setting [6] and “No” (IFNγ ELISpot, only peptides marked Elispot tested = Yes). RSVLEEMGL [compound 58]: under setting [1], the “ELISPOT result (positive Yes/No)” value is “No” and the “ELISPOT result … (Yes/No)” value is “No”. As for RTHPYSPKK [compound 171], the “ELISPOT result (positive Yes/No)” value under setting [1] was “No”. As for RTLLVTCILY [compound 125], the Elispot reactive result under setting [6] is reported as “No”. RTRSAWGDW [compound 141]: under setting [1], the “ELISPOT result (positive Yes/No)” value is reported as “No”.

Regarding RVPAHASTSI, the Elispot reactive result under setting [4] is reported as “yes”. In the case of RVPAHASTSL [compound 27], the Elispot reactive entry by setting is: under setting [3], “Yes”; under setting [6], “Yes”; under setting [2], “Yes”. For the sequence RWMVLRNSWRAVARM, the Elispot reactive entry under setting [4] is given as “yes”. As to SELLNPVTMNK [compound 205], the Elispot reactive entry (IFNγ ELISpot, peptide tested) was “No”. Take SINVLCVRASLIEKL: under setting [5], the Elispot reactive entry was “yes”.

For SLINLTWTA, under setting [4], the Elispot reactive entry is listed as “yes”. Turning to SLINLTWTA [compound 66], the “ELISPOT result … (Yes/No)” value under setting [1] was “No”. On to SLVRLSSCVPV [compound 4], for which the Elispot reactive entry (IFNγ ELISpot, peptide tested) is given as “No”.

SLWSSMPHGV [compound 23]: the Elispot reactive entry runs as follows: under setting [3], “Yes”; under setting [2], “Yes”. For the sequence SMAASPSPK [compound 179], the “ELISPOT result (positive Yes/No)” value under setting [1] is listed as “No”. Consider SMMPPPPAL [compound 2], for which the Elispot reactive entry (IFNγ ELISpot, peptide tested) is recorded as “No”. On to SPAIPPRPL, for which the Elispot reactive entry under setting [4] is “yes”.

In the case of SPAIPPRPL [compound 7], the Elispot reactive entry (IFNγ ELISpot, peptide tested) is on record as “No”. For the sequence SPMITRIL [compound 210], for the setting “IFNγ ELISpot, peptide tested”, the Elispot reactive result is listed as “No”. Take SPPLHLCQPL [compound 95]: under setting [1], the “ELISPOT result (positive Yes/No)” value is reported as “No” and the “ELISPOT result … (Yes/No)” value is “No”. Regarding SPSRSTTAPV [compound 134], the “ELISPOT result (positive Yes/No)” value under setting [1] is listed as “No”.
